Peptide text beside a SMILES is read from it.
System: Human dermal fibroblast cells
Experiment: Hyaluronic acid (HA) production in human dermal fibroblast cells, HA ELISA of the media
Assay type: cell-based
Details: percent change of HA production relative to vehicle control, peptide concentration 0.001%, 48h treatment in DMEM media without FBS, secreted HA in media
Experimental: Human dermal fibroblast cells were grown in a 96 well plate in DMEM media (available from Corning, N.Y.) supplemented with 10% Fetal Bovine Serum (FBS) and L-glutamine (0.07×10^5 cells/plate). After reaching about 75% confluence, cells were transferred into DMEM media without FBS and incubated for 4-6 hours. Next, cells were treated with peptide of Formula I at 0.00001%, 0.0001%, 0.001% final concentration in DMEM media without FBS for 48h. After treatment the media were collected, and cell viability was measured using MTT. Amount of secreted Hyaluronic Acid (HA) was tested in the media using HA Elisa kit (available from Corgenix, Broomfield, Colo.).
Results are summarized in Table 1 below as percent change of HA production relative to vehicle control: […]

CC(N)C(=O)NC(CCC(=O)O)C(=O)NC(CS)C(=O)NC(CCCCN)C(=O)O (stereo not drawn) [AECK (SEQ ID NO: 1), Ala-Glu-Cys-Lys] (H-AECK-OH; configuration not given here) was tested, and the “Increase in HA Production” value was “+90-150%” and the “Increase in HA Production” value (listed as peptide of Formula I) was 90-150%.
